Assays:
[1] = biological target: CYP2C19 (Homo sapiens, UniProt P33261); test: P450-Glo luminescence inhibition assay
[2] = biological target: T1, CYP1A2 (Homo sapiens, UniProt P05177); test: P450-Glo luminescence turnover; type: biochemical; settings: NADPH regeneration system; potassium phosphate buffer; […] °C; luminogenic substrate
T1 construct: recombinant human enzyme in membrane preparation (Promega P450-Glo CYP1A2 Screening System)
T1 sequence (P05177 2-516): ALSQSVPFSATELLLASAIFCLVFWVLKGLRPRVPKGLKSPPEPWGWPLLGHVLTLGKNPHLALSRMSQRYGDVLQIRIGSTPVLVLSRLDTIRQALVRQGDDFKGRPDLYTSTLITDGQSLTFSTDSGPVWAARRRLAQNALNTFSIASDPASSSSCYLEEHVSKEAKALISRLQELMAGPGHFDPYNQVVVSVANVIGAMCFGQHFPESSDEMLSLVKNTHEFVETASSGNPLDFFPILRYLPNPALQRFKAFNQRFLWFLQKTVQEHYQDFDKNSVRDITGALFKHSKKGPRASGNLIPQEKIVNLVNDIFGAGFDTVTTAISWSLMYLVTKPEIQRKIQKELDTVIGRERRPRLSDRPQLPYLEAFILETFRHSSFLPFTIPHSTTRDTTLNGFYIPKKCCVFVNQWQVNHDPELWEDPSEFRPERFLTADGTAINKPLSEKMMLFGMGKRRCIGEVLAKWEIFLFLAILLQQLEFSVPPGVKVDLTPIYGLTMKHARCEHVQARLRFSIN

CYP2C19, sequence (P33261 whole entry): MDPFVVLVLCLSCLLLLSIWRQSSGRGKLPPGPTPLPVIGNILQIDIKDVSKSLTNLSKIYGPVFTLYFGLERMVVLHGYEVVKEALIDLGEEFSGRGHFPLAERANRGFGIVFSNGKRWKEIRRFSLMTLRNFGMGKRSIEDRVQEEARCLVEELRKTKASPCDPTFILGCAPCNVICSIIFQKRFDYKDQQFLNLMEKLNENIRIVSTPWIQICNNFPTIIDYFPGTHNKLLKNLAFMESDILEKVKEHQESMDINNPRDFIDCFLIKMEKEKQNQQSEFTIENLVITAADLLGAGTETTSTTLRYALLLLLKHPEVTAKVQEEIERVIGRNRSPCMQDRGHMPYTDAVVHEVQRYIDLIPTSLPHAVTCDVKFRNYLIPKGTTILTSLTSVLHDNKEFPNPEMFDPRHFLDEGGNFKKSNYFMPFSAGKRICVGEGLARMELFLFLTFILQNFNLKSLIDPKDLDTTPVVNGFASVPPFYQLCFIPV

SMILES	IC50 [1] [µM]	P450-Glo luminescence turnover [2]
CCCCCCCCCC(=O)N(C)C [NDA, N,N-dimethyldecanamide]	4.05	–
COc1ccc2nc(C3=NC(C(=O)O)CS3)sc2c1 (centres unmarked) [Luciferin-ME]	–	Luciferin-ME (CYP1A2) as luminogenic substrate
